Literature values as cited in article PMC7134594 (Chemistry & Biology, 2004).

Test system: SARS-CoV

| SMILES | inhibiting replication of SARS-CoV in vitro | other results |
| --- | --- | --- |
| NC(=O)c1ncn([C@@H]2O[C@H](CO)[C@@H](O)[C@H]2O)n1 [Ribavirin, ribavirin] |  | anti-SARS-CoV activity in vitro: anti-SARS-CoV activity in vitro, but at concentrations that are cytotoxic |
| CC(C)(C)NC(=O)[C@@H]1C[C@@H]2CCCC[C@@H]2CN1C[C@@H](O)[C@H](Cc1ccccc1)NC(=O)[C@H](CC(N)=O)NC(=O)c1ccc2ccccc2n1 [saquinavir] | ineffective |  |
| Cc1cccc(C)c1OCC(=O)N[C@@H](Cc1ccccc1)[C@@H](O)C[C@H](Cc1ccccc1)NC(=O)[C@H](C(C)C)N1CCCNC1=O [lopinavir] | ineffective |  |
| CC(C)(C)NC(=O)[C@@H]1CN(Cc2cccnc2)CCN1C[C@@H](O)C[C@@H](Cc1ccccc1)C(=O)N[C@H]1c2ccccc2C[C@H]1O [indinavir] | ineffective |  |
| CC(C)c1nc(CN(C)C(=O)N[C@H](C(=O)N[C@@H](Cc2ccccc2)C[C@H](O)[C@H](Cc2ccccc2)NC(=O)OCc2cncs2)C(C)C)cs1 [ritonavir] | ineffective |  |
| Cc1c(O)cccc1C(=O)N[C@@H](CSc1ccccc1)[C@H](O)CN1C[C@H]2CCCC[C@H]2C[C@H]1C(=O)NC(C)(C)C [nelfinavir] |  | EC50 (read-out: EC50, inhibition of SARS-CoV replication): 48 nM |
| CSC[C@H](NC(=O)COc1cccc2cnccc12)C(=O)N[C@@H](Cc1ccccc1)[C@H](O)C(=O)N1CSC[C@H]1C(=O)NC(C)(C)C [KNI-272] | ineffective |  |
